We go through two molecules from patent US9416144B2, “Benzoxazine oxazolidinone compound, preparation method and application thereof” (priority 2012, dated 2016).

In brackets after ≈: the same amount, converted by molar mass. Several values for one entry are separate records, joined by “and”; a condition that tells them apart may be missing. Equal entries are not always repeated. Where two headings read alike, the source gives them in different places. Where only a bound is given, the exact number is not on record here.

In data set [1] the test system is methicillin-resistant Staphylococcus aureus ATCC 33591 (MRSA). As to the kind of experiment: In vivo antibacterial activity, mice with systemic infection by MRSA, survival at 48 hours. As to conditions: female ICR mice, systemic infection (2.35 × 10^7 CFU/mice, intraperitoneal), oral administration 1 hour after infection. The protocol: Test strains: the strain used to infect animals was methicillin-resistant Staphylococcus aureus ATCC 33591 (MRSA).
Experimental animals: female ICR mice, age: 4 to 5 weeks, weight 20 to 22 grams, available from Shanghai Sippr BK Experimental Animal Co., Ltd., qualification certificate No.: 2008001625863.
Experimental method: Mice were randomly divided into groups. There were 4 dosage groups for each subject drug each administration manner: 2.5, 5, 10 and 20 mg/kg, 6 mice for each dosage group. Furthermore, a gastric mucin vehicle group was used as negative control for each administration manner. Mice were intraperitoneally injected with 10^7-10^8 CFU/mL of the bacterial suspension, 0.5 ml/mouse, and at 1 hour after infection the mice were orally administered the corresponding drugs for treatment, dosing volume 0.2 mL/20 g. This research program complied with the provisions and relevant regulations of National Laboratory Animal Management and Welfare.

A short description of data set [2]: In vivo pharmacokinetic assays in rats (intragastric and intravenous), plasma Compound 14 by LC-MS/MS. Also noted: species or system SD rats. The protocol: Two routes of administration (intragastric administration and intravenous injection) were employed.
Intragastric administration: Four healthy SD rats, male, weight 200-250 g, were dosed 15 mg/kg; the delivery volume was 10 ml/kg, prepared with 0.5% CMC-Na. The rats were fasted for 12 hrs before administration, free water-drinking. 0.3 ml of venous blood was taken from the posterior venous plexus of rats to heparinized tubes at 0.25, 0.5, 1.0, 2.0, 3.0, 4.0, 5.0, 7.0, 9.0, 24, and 48 hrs after administration, centrifuged at 3500 rpm for 10 mins to separate the plasma, which was then stored at −20° C. for test.
Intravenous injection: Two healthy SD rats, male, weight 200˜250 g, were dosed 5 mg/kg; the delivery volume was 10 ml/kg, prepared with DMSO, Tween 80 and deionized water. The rats were fasted for 12 hrs before administration, free water-drinking. 0.3 ml of venous blood was taken from the posterior venous plexus of rats to heparinized tubes at 5 min, 15 min, and 0.5, 1.0, 2.0, 3.0, 4.0, 5.0, 7.0, 9.0, 24, and 48 hrs after administration, centrifuged at 3500 rpm for 10 mins to separate the plasma, which was then stored at −20° C. for test.
The concentration of Compound 14 in plasma was determined by liquid chromatography tandem mass spectrometry.
In accordance with the above experimental methods, the inventor has determined the in vivo pharmacokinetic properties of phosphate (ester) disodium salt 37 of Compound 14 in rats.

Assay in data set [3]: as above
Also noted: species or system SD rats. The conditions noted are these: for CLz: parameters of 14 in rats after 10 mg/kg Compound 37 intravenous injection.

Data set [4] relates to Staphylococcus epidermidis sensitive strains (5 strains). As to the kind of experiment: In vitro antibacterial activity, MIC by agar double dilution method. It is filed as cell-based. The conditions noted are these: clinical isolates. A digest of the protocol:
(§1)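 Clinical isolates from the Nanjing region, spotted at about 10^6 CFU/mL onto MIT agar containing drug at 64 down to 0.031 μg/mL in 2-fold steps. Plates incubated 16 hrs at 35° C.; MIC is the lowest concentration with no growth.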

In data set [5] the test system is Staphylococcus aureus resistant strains (6 strains). The description is as above. It is filed as cell-based. As to conditions: clinical isolates. The method in brief: as §1
Data set [6] concerns Streptococcus pneumoniae resistant strains (4 strains). The data set is described as above. It is filed as cell-based. The conditions noted are these: clinical isolates. The method in brief: as §1
The subject of data set [7] is Staphylococcus aureus sensitive strains (5 strains). Described as above. It is filed as cell-based. As to conditions: clinical isolates. The method in brief:
as §1

The next data set deals with Enterococcus (6 strains). Described as above. As to conditions: clinical isolates, 35° C. 16 hrs. It is filed as cell-based. A digest of the protocol: as §1
Data set [8] deals with Staphylococcus epidermidis resistant strains (5 strains). The description is as above. The conditions noted are these: clinical isolates. It is filed as cell-based. The method in brief: as §1
Data set [9] deals with S.a. ATCC 29213 (standard strain of Staphylococcus aureus). As to the kind of experiment: In vitro antibacterial activity on linezolid-resistant strains, MIC in MHB broth, 96-well plate. It is filed as cell-based. The conditions noted are these: ATCC29213, 35° C. 20 hrs. The protocol:
(§2) The stock solution of the subject drugs in DMSO was 10 mg/mL. MHA (agar) and MHB (broth) were both prepared according to the manufacturer's requirements.
(§3) Double dilution of drugs: under aseptic operation, 12.8 μL of liquid drug was added into the first well of a 96-well plate, and then added 27.2 μL DMSO and mixed. The 2nd to 12nd wells were all added 20 μL DMSO. 20 μL was taken from the first well to the second well and mixed up. 20 μL was taken from the second well to the third well, which was repeated till the 11st well, from which was taken 20 μL and discarded. The 12nd well only had 20 μL of DMSO as the growth control. Then 180 μL of sterile water was added to each well and mixed up. The drug used as control was prepared by the same method.
(§4) The solutions with different concentrations of antibacterial drugs after the double dilution and DMSO were added into a sterile 96-well plate separately, 10 μL per well, ready for use.
(§5) Single colonies were picked from the MHA plates into 5 ml of sterile saline and mixed up.
(§6) Light transmittance was adjusted to 80% with a spectrophotometer. After being diluted by 1:200 with MHB, 90 μL of such bacteria liquid was added into each of the wells which already had 10 μL of the drug liquid, mixed up, and incubated in a regular biochemical incubator at 35° C. for 20 hrs before the results were read out. At this time, the drug concentration in the 1st to 12nd wells was 32, 16, 8, 4, 2, 1, 0.5, 0.25, 0.125, 0.0625, 0.03125, 0 μg/mL, respectively.
(§7) Two parallel groups were set up for the same diluted concentration of a drug.
(§8) 4) Results Reading and Judgment: Refer to the Standard Recommended by the CLSI, 2010 Edition.
(§9) The positive control group was LZ (linezolid, brand name Zyvox, approved by the FDA in 2000 to be firstly sold in the United States, which is the first and also the only one of oxazolidinone antibacterial drugs allowed to enter clinical application).

In data set [10] the test system is LRSE, linezolid-resistant strain of Staphylococcus epidermidis (1 strain). Described as above. It is filed as cell-based. As to conditions: LRSE (1 strain). The protocol:
as §2, §3, §4, §5, §6, §7, §8, §9

The subject of data set [11] is LRSA, linezolid-resistant strain of Staphylococcus aureus (3 strains). Described as above. As to conditions: LRSA (3 strains). It is filed as cell-based. The protocol:
as §2, §3, §4, §5, §6, §7, §8, §9

Data set [12] concerns LREFA, linezolid-resistant strain of Enterococcus faecium (3 strains). The data set is described as above. It is filed as cell-based. The conditions noted are these: LREFA (3 strains). The protocol: as §2, §3, §4, §5, §6, §7, §8, §9
In data set [13] the test system is LREFL, linezolid-resistant strain of Enterococcus faecalis (3 strains). The description is as above. The conditions noted are these: LREFL (3 strains). It is filed as cell-based. The procedure: as §2, §3, §4, §5, §6, §7, §8, §9

Usually ED50 stands for the midpoint of the dose-response relation. As for `CN1CC(c2ccc(-c3ccc4c(c3)OC[C@H]3[C@H](COP(=O)([O-])[O-])OC(=O)N43)cn2)OC1=O.[Na+].[Na+]` (stereo partly shown) [Compound 37], the ED50 in [1] is 5.00 mg/kg. Further, the “plasma exposure of 14 of the group receiving 37 relative to the group receiving 14” value in data set [2] (intragastric administration, upon measurement normalization) came to 157%. Moreover, in data set [2] (intravenous injection, prodrug 37 vs Compound 14), the “plasma exposure of intravenous injection relative to that of Compound 14” value worked out at 1.34 times. Also, the “oral plasma exposure relative to that of Compound 14” value in [2] (oral, prodrug 37 vs Compound 14) came out at 1.5 times. For the same molecule, the CLz in data set [3] (average value) was 40.3 mL/min/kg; in [3] (individual animals No. 5-7) it was 41.3 mL/min/kg and 35.7 mL/min/kg and 44 mL/min/kg. The “plasma exposure of compound 14 of the group receiving 37 relative to the group receiving 14” value in data set [3] (rats, intravenous injection, upon measurement normalization) was 134%.
As usually defined, the MIC is the lowest concentration that inhibits growth of the organism. For `CC(=O)NC[C@H]1CN(c2ccc(N3CCOCC3)c(F)c2)C(=O)O1` [LZ, linezolid, reference compound], the ED50 in [1] (Staphylococcus aureus, read-out: ED50) was determined as 9.87 mg/kg. Moreover, the MIC in data set [4] was 1 µg/mL (≈ 2.96 µM); in [5], 1 to 2 µg/mL (≈ 2.96 to 5.93 µM); in [6] it was 2 µg/mL (≈ 5.93 µM); in [7], 1 to 2 µg/mL (≈ 2.96 to 5.93 µM); against Enterococcus (6 strains), 1 to 2 µg/mL (≈ 2.96 to 5.93 µM); in data set [8] it was 1 to 2 µg/mL (≈ 2.96 to 5.93 µM). Further, the MIC is 1 µg/mL (≈ 2.96 µM) in data set [9]; 16 µg/mL (≈ 47.4 µM) in [10]; above 32 µg/mL in data set [11]; 8 to 16 µg/mL (≈ 23.7 to 47.4 µM) in data set [12]; 8 to 16 µg/mL (≈ 23.7 to 47.4 µM) in data set [13].
